Results published in the NIST ThermoML archive (doi:10.1016/j.jct.2004.11.020).
± gives the expanded uncertainty stated by the source.

Assays:
[1] = xn = mol fraction of the nth substance listed; conditions: 308.15 K, 101 kPa, Liquid; for speed of sound: Pulse-echo method
[2] = 308.15 K, 101.33 kPa, Liquid; for speed of sound: Pulse-echo method

OCCCCO [1,4-butanediol] + O=C1CCCN1
[1]
Conditions	excess molar volume [m3/mol]	speed of sound [m/s]	viscosity [mPa·s]
x2 = 0.0144	-1e-09 ± 9e-09	–	–
x2 = 0.0265	–	1579.3 ± 1.5	44.47 ± 1.3
x2 = 0.0335	-2e-09 ± 9e-09	–	–
x2 = 0.0524	–	1580.6 ± 1.5	42.37 ± 1.2
x2 = 0.0631	-5e-09 ± 9e-09	–	–
x2 = 0.0746	–	1581.5 ± 1.5	40.73 ± 1.1
x2 = 0.0859	-7e-09 ± 9e-09	–	–
x2 = 0.099	–	1582.3 ± 1.5	39.16 ± 1.1
x2 = 0.1034	-1.2e-08 ± 9e-09	–	–
x2 = 0.1244	-1.6e-08 ± 9e-09	–	–
x2 = 0.133	-1.8e-08 ± 9e-09	–	–
x2 = 0.1495	-2.2e-08 ± 9e-09	–	–
x2 = 0.1515	–	1583.7 ± 1.5	35.63 ± 0.97
x2 = 0.1707	-2.4e-08 ± 9e-09	–	–
x2 = 0.1835	-2.6e-08 ± 9e-09	–	–
x2 = 0.1968	-2.7e-08 ± 9e-09	–	–
x2 = 0.197	–	1585.2 ± 1.5	32.87 ± 0.88
x2 = 0.2205	-2.8e-08 ± 9e-09	–	–
x2 = 0.2428	-2.9e-08 ± 9e-09	–	–
x2 = 0.2649	-2.7e-08 ± 9e-09	–	–
x2 = 0.2863	-2.6e-08 ± 9e-09	–	–
x2 = 0.2914	–	1587.8 ± 1.5	27.93 ± 0.73
x2 = 0.3121	-2.6e-08 ± 9e-09	–	–
x2 = 0.3339	-2.2e-08 ± 9e-09	–	–
x2 = 0.3582	-2e-08 ± 9e-09	–	–
x2 = 0.384	-1.5e-08 ± 9e-09	–	–
x2 = 0.3911	–	1589.6 ± 1.5	23.57 ± 0.61
x2 = 0.4202	-1.1e-08 ± 9e-09	–	–
x2 = 0.4438	-9e-09 ± 9e-09	–	–
x2 = 0.4533	–	1590.3 ± 1.5	–
x2 = 0.4656	-7e-09 ± 9e-09	–	–
x2 = 0.4771	-4e-09 ± 9e-09	–	–
x2 = 0.4954	-2e-09 ± 9e-09	–	–
x2 = 0.5159	-2e-09 ± 9e-09	–	–
x2 = 0.5237	–	1591.3 ± 1.5	19.22 ± 0.49
x2 = 0.527	0 ± 9e-09	–	–
x2 = 0.5409	1e-09 ± 9e-09	–	–
x2 = 0.5644	4e-09 ± 9e-09	–	–
x2 = 0.5753	6e-09 ± 9e-09	–	–
x2 = 0.5886	7e-09 ± 9e-09	–	–
x2 = 0.5997	–	1592.6 ± 1.5	17.1 ± 0.44
x2 = 0.6032	8e-09 ± 9e-09	–	–
x2 = 0.6155	1e-08 ± 9e-09	–	–
x2 = 0.6273	1.3e-08 ± 9e-09	–	–
x2 = 0.6452	2e-08 ± 9e-09	–	–
x2 = 0.6685	2.2e-08 ± 9e-09	–	–
x2 = 0.6788	2.3e-08 ± 9e-09	–	–
x2 = 0.6904	–	1593.7 ± 1.5	14.81 ± 0.38
x2 = 0.6925	2.4e-08 ± 9e-09	–	–
x2 = 0.7159	2.5e-08 ± 9e-09	–	–
x2 = 0.7338	2.6e-08 ± 9e-09	–	–
x2 = 0.7494	2.7e-08 ± 9e-09	–	–
x2 = 0.7878	–	1595 ± 1.5	12.92 ± 0.33
x2 = 0.8877	–	1596.8 ± 1.5	10.74 ± 0.28
x2 = 0.9305	–	1598 ± 1.5	10.14 ± 0.26
x2 = 0.9481	–	1598.5 ± 1.5	9.772 ± 0.26
x2 = 0.9741	–	1599.2 ± 1.5	9.275 ± 0.24

CCC(O)CO (centres undefined) [1,2-butanediol] + O=C1CCCN1
[1]
Conditions	excess molar volume [m3/mol]	speed of sound [m/s]	viscosity [mPa·s]
x2 = 0.027	–	1426.7 ± 2.2	28.33 ± 0.79
x2 = 0.0473	1.3e-08 ± 9e-09	–	–
x2 = 0.0512	–	1430.5 ± 2.2	27.12 ± 0.75
x2 = 0.0621	1.8e-08 ± 9e-09	–	–
x2 = 0.0786	2.4e-08 ± 9e-09	–	–
x2 = 0.0797	–	1435.2 ± 2.2	25.57 ± 0.7
x2 = 0.0977	–	1438.2 ± 2.2	24.38 ± 0.66
x2 = 0.0991	2.8e-08 ± 9e-09	–	–
x2 = 0.113	3.2e-08 ± 9e-09	–	–
x2 = 0.1263	3.6e-08 ± 9e-09	–	–
x2 = 0.142	4e-08 ± 9e-09	–	–
x2 = 0.1464	–	1446.3 ± 2.1	22.32 ± 0.6
x2 = 0.162	4.4e-08 ± 1e-08	–	–
x2 = 0.1937	–	1454.3 ± 2.1	20.82 ± 0.56
x2 = 0.1973	4.7e-08 ± 1e-08	–	–
x2 = 0.2456	5e-08 ± 1e-08	–	–
x2 = 0.2794	5.2e-08 ± 1e-08	–	–
x2 = 0.3017	–	1472.5 ± 2	17.81 ± 0.47
x2 = 0.3213	5.3e-08 ± 1e-08	–	–
x2 = 0.3797	5.2e-08 ± 1e-08	–	–
x2 = 0.4034	5.1e-08 ± 1e-08	–	–
x2 = 0.4061	–	1490.3 ± 1.9	15.69 ± 0.41
x2 = 0.4544	5e-08 ± 1e-08	–	–
x2 = 0.4753	4.9e-08 ± 1e-08	–	–
x2 = 0.5014	4.7e-08 ± 1e-08	–	–
x2 = 0.5017	–	1507.5 ± 1.9	14.09 ± 0.37
x2 = 0.5226	4.4e-08 ± 1e-08	–	–
x2 = 0.5643	4.1e-08 ± 1e-08	–	–
x2 = 0.5966	3.8e-08 ± 9e-09	–	–
x2 = 0.5983	–	1524.7 ± 1.8	12.68 ± 0.33
x2 = 0.6244	3.6e-08 ± 9e-09	–	–
x2 = 0.6571	3.3e-08 ± 9e-09	–	–
x2 = 0.688	2.9e-08 ± 9e-09	–	–
x2 = 0.7038	–	1543.6 ± 1.7	11.52 ± 0.3
x2 = 0.71	2.6e-08 ± 9e-09	–	–
x2 = 0.7348	2.4e-08 ± 9e-09	–	–
x2 = 0.7619	2e-08 ± 9e-09	–	–
x2 = 0.7843	1.7e-08 ± 9e-09	–	–
x2 = 0.798	–	1561 ± 1.6	10.78 ± 0.28
x2 = 0.8061	1.4e-08 ± 9e-09	–	–
x2 = 0.8374	1.2e-08 ± 9e-09	–	–
x2 = 0.8484	–	1570.6 ± 1.6	10.26 ± 0.27
x2 = 0.8607	1.1e-08 ± 9e-09	–	–
x2 = 0.8753	1e-08 ± 9e-09	–	–
x2 = 0.8878	9e-09 ± 9e-09	–	–
x2 = 0.9038	–	1580.6 ± 1.6	9.435 ± 0.25
x2 = 0.9039	8e-09 ± 9e-09	–	–
x2 = 0.924	7e-09 ± 9e-09	–	–
x2 = 0.9319	–	1586.6 ± 1.5	9.291 ± 0.24
x2 = 0.9469	6e-09 ± 9e-09	–	–
x2 = 0.9512	–	1590.1 ± 1.5	9.015 ± 0.24
x2 = 0.9599	5e-09 ± 9e-09	–	–
x2 = 0.9738	–	1594.7 ± 1.5	8.969 ± 0.24
x2 = 0.9885	3e-09 ± 9e-09	–	–
x2 = 0.9955	2e-09 ± 9e-09	–	–

CCC(O)CO (centres undefined) [1,2-butanediol]
[2]
Conditions	mass density [kg/m3]	speed of sound [m/s]	viscosity [mPa·s]
–	988.25 ± 1	1422.6 ± 2.2	30.29 ± 0.85

CC(O)C(C)O (centres undefined) [2,3-butanediol]
[2]
Conditions	mass density [kg/m3]	speed of sound [m/s]	viscosity [mPa·s]
–	990.72 ± 1	1456.6 ± 2.3	51.38 ± 1.1

CC(O)CCO (centres undefined) [1,3-butanediol]
[2]
Conditions	mass density [kg/m3]	speed of sound [m/s]	viscosity [mPa·s]
–	991.28 ± 0.53	1496 ± 1.5	54.24 ± 1.2
